# In patent publication US20260242391A1 (priority 2023, published 2026):
# Assays:
# HL-60 = HL-60 differentiation potency; type: cell-based; conditions: Homo sapiens
# in vitro = conditions: human
EC50 (HL-60) [µM],IC50 (in vitro) [µM],Structure (SMILES)
> 20,> 20,"C[C@H]1[C@H](OCC(=O)N2C[C@H](F)C[C@H]2C(=O)O)O[C@@H]2O[C@@]3(C)CC[C@H]4[C@H](C)CC[C@@H]1[C@@]24OO3 [Compound 159, (2S,4R)-4-fluoro-1-(2-(((3R,5aS,6R,8aS, 9R,10R,12R, 12aR)-3,6,9-trimethyldeca-hydro-12H-3,12-epoxy[1,2]dioxepino[4,3-i]isochromen-10-yl)oxy)acetyl) pyrrolidine-2-carboxylic acid]"
> 20,> 20,"C[C@H]1[C@H](OCc2ccc(C(=O)O)c(Cl)c2)O[C@@H]2O[C@@]3(C)CC[C@H]4[C@H](C)CC[C@@H]1[C@@]24OO3 [Compound 92, 2-chloro-4-((((3R,5aS,6R, 8aS,9R,10R,12R, 12aR)-3,6,9-trimethyldeca-hydro-12H-3,12-epoxy[1,2]dioxepino[4,3-i]isochromen-10-yl)oxy)methyl) benzoic acid]"
0.099,2.25,"C[C@H]1[C@@H](OCc2ccc(S(N)(=O)=O)cc2)O[C@@H]2O[C@@]3(C)CC[C@H]4[C@H](C)CC[C@@H]1[C@@]24OO3 [Compound 18, 4-((((3R,5aS,6R, 8aS,9R,10S,12R, 12aR)-3,6,9-trimethyldeca-hydro-12H-3,12-epoxy[1,2]dioxepino[4,3-i]isochromen-10-yl)oxy)methyl) benzene-sulfonamide]"

# Continued, compound first:
Structure (SMILES),EC50 (HL-60) [µM],IC50 (in vitro) [µM]
"C[C@@H]1CC[C@H]2[C@@H](C)C(OCc3ccc(C(=O)O)cc3F)O[C@@H]3O[C@@]4(C)CC[C@@H]1[C@]32OO4 (stereo in doubt) [Compound 45, 3-fluoro-4-((((3R,5aS,6R,8aS, 9R,10S,12R, 12aR)-3,6,9-trimethyldeca-hydro-12H-3,12-epoxy[1,2]dioxepino[4,3-i]isochromen-10-yl)oxy)methyl) benzoic acid]",0.662,> 20
"C[C@H]1[C@@H](OCC(=O)N2CC[C@@H](C(=O)O)C2)O[C@@H]2O[C@@]3(C)CC[C@H]4[C@H](C)CC[C@@H]1[C@@]24OO3 [Compound 161, (R)-1-(2-(((3R,5aS,6R,8aS, 9R,10S,12R, 12aR)-3,6,9-trimethyldeca-hydro-12H-3,12-epoxy[1,2]dioxepino[4,3-i]isochromen-10-yl)oxy)acetyl) pyrrolidine-3-carboxylic acid]",> 20,> 20
"C[C@H]1[C@@H](OCC(=O)N[C@H]2CC[C@@H](C(=O)O)C2)O[C@@H]2O[C@@]3(C)CC[C@H]4[C@H](C)CC[C@@H]1[C@@]24OO3 [Compound 152, (1R,3S)-3-(2-(((3R,5aS,6R, 8aS,9R,10S,12R, 12aR)-3,6,9-trimethyldeca-hydro-12H-3,12-epoxy[1,2]dioxepino[4,3-i]isochromen-10-yl)oxy)acetamido) cyclopentane-1-carboxylic acid]",8.48,> 20
"C[C@H]1[C@H](N[C@@H](C)c2ccc(S(C)(=O)=O)cc2)O[C@@H]2O[C@@]3(C)CC[C@H]4[C@H](C)CC[C@@H]1[C@@]24OO3 [Compound 57, (3R,5aS,6R,8aS, 9R,10R,12R, 12aR)-3,6,9-trimethyl-N-((S)-1-(4-(methyl-sulfonyl)phenyl)ethyl)decahydro-12H-3,12-epoxy[1,2] dioxepino[4,3-i] isochromen-10-amine]",8.49,9.89
"C[C@H]1[C@H](Oc2ccc(C#CC(=O)O)cc2)O[C@@H]2O[C@@]3(C)CC[C@H]4[C@H](C)CC[C@@H]1[C@@]24OO3 [Compound 139, 3-(4-(((3R,5aS,6R,8aS, 9R,10R,12R, 12aR)-3,6,9-trimethyldeca-hydro-12H-3,12-epoxy[1,2]dioxepino[4,3-i]isochromen-10-yl)oxy)phenyl) propiolic acid]",0.0309,3
"C[C@H]1[C@H](N(C)C23CC(C(=O)O)(C2)C3)O[C@@H]2O[C@@]3(C)CC[C@H]4[C@H](C)CC[C@@H]1[C@@]24OO3 [Compound 103, 3-(methyl((3R,5aS, 6R,8aS,9R,10R, 12R,12aR)-3,6,9-trimethyldeca-hydro-12H-3,12-epoxy[1,2]dioxepino[4,3-i]isochromen-10-yl)amino)bicyclo [1.1.1]pentane-1-carboxylic acid]",> 20,> 20
